Results reported in publication PMC6628362, “A New Strategy for Glioblastoma Treatment: In Vitro and In Vivo Preclinical Characterization of Si306, a Pyrazolo[3,4-d]Pyrimidine Dual Src/P-Glycoprotein Inhibitor” (Cancers, 2019).
Read-outs that look alike come from different tables or passages of the source.

Legend:
CYP3A4 = biological target: T1, CYP3A4 (Homo sapiens, UniProt P08684); assay: CYP3A4 inhibition in human liver microsomes (testosterone 6β-hydroxylation); assay type: in vitro ADME
T1 construct: Incubations were carried out in a mix containing human liver microsomes (1 mg/mL of protein); from tissue; host or cells: human liver microsomes
T1 sequence (P08684 whole entry): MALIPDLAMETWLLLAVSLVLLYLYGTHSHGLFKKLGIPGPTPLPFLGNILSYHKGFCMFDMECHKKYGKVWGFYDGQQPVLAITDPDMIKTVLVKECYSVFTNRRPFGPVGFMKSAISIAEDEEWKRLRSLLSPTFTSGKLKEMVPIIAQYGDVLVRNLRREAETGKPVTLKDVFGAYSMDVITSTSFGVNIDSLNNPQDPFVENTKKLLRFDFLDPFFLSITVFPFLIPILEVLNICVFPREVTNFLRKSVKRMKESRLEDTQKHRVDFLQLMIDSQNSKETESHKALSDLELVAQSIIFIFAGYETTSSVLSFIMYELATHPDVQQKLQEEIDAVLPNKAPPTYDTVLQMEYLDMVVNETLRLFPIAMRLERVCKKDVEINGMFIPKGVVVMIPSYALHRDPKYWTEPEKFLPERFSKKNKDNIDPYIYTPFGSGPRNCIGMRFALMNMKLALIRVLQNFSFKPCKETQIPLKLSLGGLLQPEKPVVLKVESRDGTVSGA
Description: The inhibition of cytochrome P450 3A4 isoform by Si306 and pro-Si306 was measured by determining its activity on the substrate testosterone.
The activity of CYP3A4 was evaluated by measuring the 6β-hydroxylated testosterone formation (CYP3A4-specific reaction). The amount of 6β-hydroxylated metabolite was assessed in the absence and presence of Si306, pro-Si306 and ketoconazole (testosterone concentration of 100 μM in phosphate buffer 0.025 M, pH 7.4). […] Ketoconazole was used as standard selective inhibitor of CYP3A4 isoenzyme. Incubations were carried out in a mix containing human liver microsomes (1 mg/mL of protein) in phosphate buffer 0.025 M, pH 7.4, NADPH (200 μM) previously solubilized in a MgCl2 48 mM solution. The final incubation volume was 0.25 mL. After a 40 min-incubation period at 37 °C, the reaction was stopped by adding 1 mL of acetonitrile in the presence of corticosterone 2 μM as internal standard. The samples were centrifuged for 20 min at 5000 rpm. Concentrations of testosterone and its metabolite 6β-hydroxytestosterone were assessed by the HPLC method with UV detection. Calibration curve for quantitative analysis of 6β-hydroxytestosterone in the samples was obtained using commercial 6β-hydroxytestosterone purchased from Sigma Aldrich. For the statistical analysis, GraphPad InStat 3.0 (GraphPad Software, San Diego, CA, USA) was used.

[1] = biological target: Human Serum Albumin (HSA) (Homo sapiens, UniProt P02768); assay: Binding fluorimetric assay, HSA; assay type: in vitro ADME
Human Serum Albumin (HSA), sequence (P02768 25-609): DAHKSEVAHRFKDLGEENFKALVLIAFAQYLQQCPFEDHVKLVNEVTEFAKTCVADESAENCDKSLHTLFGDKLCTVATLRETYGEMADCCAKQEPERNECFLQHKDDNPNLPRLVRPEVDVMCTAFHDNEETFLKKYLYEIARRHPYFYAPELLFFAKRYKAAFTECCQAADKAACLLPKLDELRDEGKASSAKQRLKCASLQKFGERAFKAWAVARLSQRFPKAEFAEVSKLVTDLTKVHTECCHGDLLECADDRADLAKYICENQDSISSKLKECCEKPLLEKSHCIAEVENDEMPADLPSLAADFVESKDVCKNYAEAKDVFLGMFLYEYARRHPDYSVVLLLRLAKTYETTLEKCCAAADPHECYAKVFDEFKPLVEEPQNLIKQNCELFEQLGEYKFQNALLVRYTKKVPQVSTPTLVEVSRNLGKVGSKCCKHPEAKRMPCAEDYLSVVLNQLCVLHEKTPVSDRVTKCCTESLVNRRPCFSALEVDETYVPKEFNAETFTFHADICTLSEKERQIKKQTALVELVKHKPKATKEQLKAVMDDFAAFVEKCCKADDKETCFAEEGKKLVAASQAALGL
Description: In order to determine the binding affinity for Si306 and pro-Si306 to HSA (human serum albumin) and AGP (alpha-1-acid glycoprotein), the protein fluorescence has been monitored by spectroscopy. The quantitative analysis was performed using black 96 multiwell plates: in each well, a fixed concentration of HSA or AGP (10 µM in phosphate buffer 1 mM) was added with different amounts of the tested compound (0.1 µM to 500 µM). Plates were gently shacked and after 30 min at room temperature for equilibration, spectra were recorded from 300 to 400 nm, after excitation at 295 nm, by using a Perkin Elmer EnVision Multilabel Reader 2014 spectrofluorimeter. Finally, spectra were acquired with EnVision Manager ver.1.13 software (Walthman, MA, USA). The obtained non fluorescence quenching percentages were plotted against drug concentrations and the relative KD values were calculated using GraphPad software (version 6.0).

[2] = Brain and tissue distribution of Si306 in mice; assay type: in vivo, BALB/C mice; conditions: for Tmax / Kp / AUC(0-inf) / Cmax / half-life / AUC(0-t) / MRT inf: male, BALB/C, mouse; for Tmax / AUC(0-inf) / Cmax / half-life / AUC(0-t) / MRT inf: brain; for Kp: brain/plasma, read-out: AUC brain to plasma ratio; for AUC(0-t): read-out: AUC 0→24 h; for MRT inf: read-out: MRT 0→∞
Source text: Naive male BALB/C mice (weight 20 ± 2 g) were ordered from Charles River (Milan, Italy). All animals were pathogen free and approximately 4–6 weeks old when they arrived. The adaption period to the environment was not less than seven days. All the procedures used on animals in this study were approved by Institutional Animal Use and Care Committee at Università Cattolica del S. Cuore, Rome and Università degli Studi di Siena and authorized by the Italian Ministry of Health, according to Legislative Decree 116/92, which implemented the European Directive 86/609/EEC on laboratory animal protection in Italy. Methods for all the conducted experiments were performed in accordance with regulations, standards and guidelines of the Animal Use and Care Committee of Università Cattolica del S. Cuore, Rome and Università degli Studi di Siena.
Si306 was dissolved in a mixture of Tween80 (10% v/v), benzyl alcohol (1% v/v) and a 10 mM solution of citric acid. The compound was administered intravenously as a single dose of 25 mg/kg in 200 μL of volume. At several time points (0.08, 0.25, 0.5, 1, 2, 4, 8, 24 h), after drug administration, mice were treated i.p. with heparin (5000 U/kg) and sacrificed under CO2. Five animals were used for each time point. Blood, brain, liver and kidneys were collected for the following quantitative analysis. Approximately 500–600 μL of blood was collected from each animal and transferred to a tube containing 10 μL of heparin and mixed briefly.
For the oral PK studies, mice received a single dose of 50 mg/kg of Si306 (dissolved in the same vehicle used for i.v. studies) in 400 μL of final volume by gavage. At nine time-points (0.25, 0.5, 1, 1.5, 2, 3, 4, 8, 24 h) after administration, mice were sacrificed under CO2. Blood and organs were collected and analyzed by LC-MS. The pharmacokinetic parameters, including area under concentration-time curve (AUC), maximum plasma concentration (Cmax), half-time (t1/2), apparent volume of distribution (V), plasma clearance (CL) and mean residence time (MRT), were calculated by non-compartmental analysis using PKSolver software (ver. 1.0, Nanjing, China).
Blood samples were centrifuged at 5000 rpm for 20 min to separate the plasma fraction, which was subsequently collected in a test tube. Acetonitrile (1 mL, with Si34 as internal standard at the concentration of 5 μg/mL) was added to each sample to denature proteins. Samples were centrifuged at 5000 rpm for 20 min, and the supernatant was recovered, dried under vacuum, solubilized again in methanol (100 μL), and analyzed. Brain and the other organs were homogenized using a T10 basic ULTRA-TURRAX® homogenizer (Bioclass, Pistoia, Italy); in order to extract the compound from the tissue, acetonitrile internal standard solution was added, and the homogenate was centrifuged at 5000 rpm for 20 min. The supernatant was recovered, filtered and analyzed by LC-MS. The quantification of each compound was performed by reference to the appropriate calibration curve. Representative LC-MS chromatograms for Si306 and for Si34 are reported in Figure S2 and Figure S3 respectively.

U87 cells = test system: U87 cells; set-up: method as in PMID 28650650; conditions: single oral treatment, mice orthotopically injected with U87 cells; cited from earlier work
[3] = 10 µM HSA, fluorescence quenching

Compound: ClC(Cn1ncc2c(Nc3cccc(Br)c3)nc(SCCN3CCOCC3)nc21)c1ccccc1 (stereo not shown) [Si306]
- inhibition at 40 min, 50 μM (CYP3A4; pH 7.4, probe testosterone 100 μM (6β-hydroxylation), highest concentration used (1–50 μM range), not significative, read-out: maximum inhibition of CYP3A4 (testosterone 6β-hydroxylation)): 20%
- interaction with CYP3A4 (CYP3A4; up to 50 μM): do not interact with CYP3A4
- BMAX [1, 3]: 61.05 ± 2.8
- Kd [1, 3]: 350 ± 100 nM
- affinity for albumin, fold greater than pro-Si306 ([1]; HSA): 60 fold
- maximum concentration into the brain ([2]; i.v., 25 mg/kg): 2.94 µg/g
- Tmax ([2]; iv, 25 mg/kg, i.v., 25 mg/kg, read-out: Tmax): 4.8 min
- Tmax ([2]; iv, 25 mg/kg, i.v., 25 mg/kg, read-out: time of maximum concentration into the brain (converted)): 5 min
- Tmax ([2]; po, 50 mg/kg, p.o., 50 mg/kg, read-out: Tmax): 30 min
- Tmax ([2]; po, 50 mg/kg, p.o., 50 mg/kg, read-out: time of maximum concentration into the brain (converted)): 30 min
- Kp ([2]; iv, 25 mg/kg): 0.095
- Kp ([2]; oral route, 50 mg/kg): 1.19
- AUC(0-inf) ([2]; iv, 25 mg/kg): 2150 ng·h/mL
- Cmax ([2]; iv, 25 mg/kg): 2940 ng/g
- half-life ([2]; iv, 25 mg/kg): 158 min
- AUC(0-t) ([2]; iv, i.v., 25 mg/kg): 2140 ng·h/mL
- MRT inf ([2]; iv, i.v., 25 mg/kg): 88.8 min
- AUC(0-inf) ([2]; po, 50 mg/kg): 18000 ng·h/mL
- Cmax ([2]; po, 50 mg/kg): 10600 ng/g
- half-life ([2]; po, 50 mg/kg): 126 min
- AUC(0-t) ([2]; po, p.o., 50 mg/kg): 18000 ng·h/mL
- MRT inf ([2]; po, p.o., 50 mg/kg): 72 min
- AUC brain/plasma, fold higher p.o. with respect to i.v. ([2]; p.o. 50 mg/kg vs i.v. 25 mg/kg): 12 fold
- maximum concentration into the brain ([2]; p.o., 50 mg/kg): 10.65 µg/g
- prolongation of survival (U87 cells): 30%
